BindingDB's records for doi:10.1021/jm970550g (Northwestern University, 1998)

Assay: Compound was tested for binding affinity against neuronal nitric oxide synthase(nNOS)

| Ki [nM] | SMILES |
| --- | --- |
| 200 | C=CCNC(=N)NCCCC(N)C(C)=O (stereo not drawn) [1-Acetyl-4-(N'-allyl-guanidino)-butyl-ammonium] |
| 430 | C#CCNC(=N)NCCCC(N)C(=O)O (stereo not drawn) [2-Amino-5-(N'-prop-2-ynyl-guanidino)-pentanoic acid] |

| SMILES | Ki [nM] |
| --- | --- |
| CCNC(=N)NCCCC(N)C(=O)O (stereo not drawn) [2-Amino-5-(N'-ethyl-guanidino)-pentanoic acid] | 16000 |
